Test results from US12018023B2 (NERVIANO MEDICAL SCIENCES S.R.L., priority 2018, dated 2024).
pIC50: −log10 of the molar value. Read-outs that look alike come from different tables or passages of the source.

Tests used:
HT-1080 (IDH1^R132C) = assay: Cellular 2-HG production assay, HT-1080; format: cell-based; conditions: inhibition of 2HG production, 72 hr incubation, LC-MS/MS, read-out: HT1080 2-HG IC50
Method: Cell lines HT-1080 (commercially available) and U87-MG-IDH1^R132H (obtained in analoy to the procedure reported in J. Mol. Neurosci 2013, 50, 165-71) are maintained in E-MEM 10% FCS and incubated at 37° C. in a humidified 5% CO2 atmosphere. Stably transfected U87-MG cell lines are also supplemented with 500 μg/mL G418.
Cells are seeded into 96 well black flat bottom plates at a density of 500 cells/well in 100 μL complete medium. After 24 hr the medium is replaced with 200 uL of fresh medium and compounds (dissolved into DMSO) are administrated to the cells using D300E Digital Dispenser (Tecan).
After 72 hr of incubation 100 uL from each well are collected and used for 2HG (R(−)-2-hydroxyglutarate) quantification.
Levels of 2-HG in cell culture media are determined by LC-MS/MS. Cell supernatants (100 μL/well) are treated with 1 M aqueous trichloroacetic acid containing 130 μM of the internal standard 2-HG-d3 (20 μL/well) in a 96-well plate.
The plates are sealed, mildly vortexed for 60 minutes, centrifuged at 4,000 RPM for 15 minutes, placed in a refrigerated autosampler taking care not to shake them, and aliquots of the upper part of the samples are directly injected in the chromatographic system. Calibration standards are obtained by ten fold dilution of aqueous 2-HG stock solutions with blank cell culture medium and denatured exactly in the same way as described above for samples. Samples and standards are assayed for 2-HG by reversed phase chromatography on a C18 column eluted with aqueous 0.15% formic acid and briefly washed with 90% methanol at the end of the run. 2-HG is determined by negative ion electrospray ionization with the internal standard method on a triple quadrupole mass spectrometer monitoring the MRM transitions 147>129 (2-HG) and 150>132 (2-HG-d3). 2-HG inhibition was calculated by comparing treated versus control data using Assay Explore (Symyx) software, with IC50 determined using a sigmoidal fitting algorithm.

IDH1^R132C = target: T1, IDH1^R132C (Homo sapiens, UniProt O75874, R132C); assay: NADPH depletion assay, IDH1 R132C; format: biochemical
T1 construct: purchased not specified
Method in brief: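 Fluorescence readout (Ex544/Em590) of NADPH left after diaphorase/resazurin addition. Alpha-ketoglutarate 0.14 mM final, enzyme 2 nM final; compound preincubation 15 min, then 60 min reaction, both at room temperature, pH 7.6 Tris buffer.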

IDH2^R172K = target: T2, IDH2^R172K (Homo sapiens, UniProt P48735, R172K); assay: NADPH depletion assay, IDH2 R172K; format: biochemical
T2 construct: purchased not specified
T2 sequence (P48735 40-452 R172K): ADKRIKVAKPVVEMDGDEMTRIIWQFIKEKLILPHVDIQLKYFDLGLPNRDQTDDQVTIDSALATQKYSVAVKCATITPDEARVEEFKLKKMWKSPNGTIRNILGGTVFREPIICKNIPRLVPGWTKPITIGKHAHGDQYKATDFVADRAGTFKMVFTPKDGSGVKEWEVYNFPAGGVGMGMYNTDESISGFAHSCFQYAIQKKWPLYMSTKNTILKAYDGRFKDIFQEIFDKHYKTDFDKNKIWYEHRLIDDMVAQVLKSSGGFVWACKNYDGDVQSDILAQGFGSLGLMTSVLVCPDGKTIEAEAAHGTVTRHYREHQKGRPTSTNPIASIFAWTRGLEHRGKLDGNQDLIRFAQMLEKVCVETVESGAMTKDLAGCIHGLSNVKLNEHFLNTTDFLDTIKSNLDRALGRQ
Method: IDH mutated enzyme activity converting alpha-ketoglutarate to 2-hydroxyglutaric acid is measured using a NADPH depletion assay. In the assay the remaining cofactor is measured at the end of the reaction with the addition of a catalytic excess of diaphorase and resazurin, to generate a fluorescent signal in proportion to the amount of NADPH remaining. IDH1 WT enzyme as well as mutated isoforms IDH1^R132H, IDH1^R132C, and IDH^2R172K enzymes are commercially available proteins (see e.g. Sino Biological, Abcam, Active Motif or Creative BioMart).
IDH1^R132H homodimer enzyme are diluted to 8 nM, in 10 μL of Assay Buffer (150 mM NaCl, 50 mM Tris-HCl pH 7.6, 10 mM MgCl2, 0.001% Triton X-100, 4 mM β-mercaptoethanol); 0.2 uL of test compound, previously serially diluted 1 to 3, >10 experimental points from 1 mM in DMSO, is added and the mixture is incubated for 15 minutes at room temperature. The reaction is started with the addition of 10 μL of Substrate Mix (12 uM NADPH, 3.4 mM alpha-ketoglutarate in Assay Buffer) and the mixture is incubated for 60 minutes at room temperature. The reaction is terminated with the addition of 5 μl of Detection Buffer (100 μg/mL diaphorase, 30 μM resazurin, in IX Assay Buffer), and is incubated for 15 minute before reading on a ViewLux as platereader at Ex544/Em590.
Compounds are assayed for their activity against IDH2^R172K following the same assay as above with the following modifications: IDH2^R172K and alpha-ketoglutarate final concentrations in the Assay Buffer is 16 nM and 0.55 mM, respectively.

[1] = target: T3, IDH1^R132H homodimer enzyme (Homo sapiens, UniProt O75874, R132H); assay: NADPH depletion assay, IDH1 R132H; format: biochemical
T3 construct: purchased not specified
Method in brief: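 IDH1 R132H enzyme (8 nM as diluted) in Tris-HCl pH 7.6 with 10 mM MgCl2, 0.001% Triton X-100 and 4 mM β-mercaptoethanol is preincubated 15 min at RT with compound. Substrate mix (12 uM NADPH, 3.4 mM α-ketoglutarate) is added for 60 min; remaining NAD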

T3 sequence (O75874 whole entry R132H): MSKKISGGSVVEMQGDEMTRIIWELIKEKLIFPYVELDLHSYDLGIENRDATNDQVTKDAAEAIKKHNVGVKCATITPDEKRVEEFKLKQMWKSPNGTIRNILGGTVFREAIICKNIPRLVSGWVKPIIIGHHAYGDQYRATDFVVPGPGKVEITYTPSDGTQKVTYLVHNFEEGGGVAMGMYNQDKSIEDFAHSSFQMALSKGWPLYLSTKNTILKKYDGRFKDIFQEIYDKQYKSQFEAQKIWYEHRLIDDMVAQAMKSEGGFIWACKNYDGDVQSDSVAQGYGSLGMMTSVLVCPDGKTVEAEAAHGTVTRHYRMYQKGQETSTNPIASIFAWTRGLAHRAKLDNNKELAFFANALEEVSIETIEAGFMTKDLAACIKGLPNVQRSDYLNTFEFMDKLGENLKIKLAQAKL
T1 sequence (O75874 whole entry R132C): as the sequence (O75874 whole entry R132H) above, with H132C counted along it

Structure (SMILES): C=CC(=O)N1CCN(Cc2ccc([C@H](C)Nc3ncc4ccc(=O)n(CC)c4n3)cc2)C(C(C)C)C1 (stereo in doubt) [cpd 212, 2-{[(1S)-1-(4-{[(2S)-4-acryloyl-2-(propan-2-yl)piperazin-1-yl]methyl}phenyl)ethyl]amino}-8-ethylpyrido[2,3-d]pyrimidin-7(8H)-one]
- pIC50 (HT-1080 (IDH1^R132C)): 7.27
- pIC50 (IDH1^R132C): 7.21

Structure (SMILES): C[C@H](Nc1ncc2ccc(=O)n(CC(C)(C)C)c2n1)c1ccc(OC2CCN(C(=O)OC(C)(C)C)CC2)cc1 [cpd 154, 4-(4-{(S)-1-[8-(2,2-Dimethyl-propyl)-7-oxo-7,8-dihydro-pyrido[2,3-d]pyrimidin-2-ylamino]-ethyl}-phenoxy)-piperidine-1-carboxylic acid tert-butyl ester]
- pIC50 (IDH2^R172K): 5.27
- pIC50 [1]: 6.70
- pIC50 (IDH1^R132C): 7.10

Structure (SMILES): CC(C)[C@H](C)n1c(=O)ccc2cnc(N[C@@H](C)c3ccc(Br)cc3)nc21 [cpd 163, 2-{[(1S)-1-(4-bromophenyl)ethyl]amino}-8-[(2S)-3-methylbutan-2-yl]pyrido[2,3-d]pyrimidin-7(8H)-one]
- pIC50 (IDH2^R172K): 5.18
- pIC50 [1]: 6.79
- pIC50 (IDH1^R132C): 7.06

Structure (SMILES): CC(C)[C@H](C)n1c(=O)ccc2cnc(N[C@@H](C)c3ccc(-c4ccccc4C#N)cc3)nc21 [cpd 165, 4′-[(1S)-1-({8-[(2S)-3-methylbutan-2-yl]-7-oxo-7,8-dihydropyrido[2,3-d]pyrimidin-2-yl}amino)ethyl]biphenyl-2-carbonitrile]
- pIC50 (IDH2^R172K): 5.25
- pIC50 [1]: 6.80
- pIC50 (IDH1^R132C): 7.07

Structure (SMILES): CC(C)[C@H](C)n1c(=O)ccc2cnc(N[C@@H](C)c3ccc(-c4ccnc(F)c4)cc3)nc21 [cpd 166, 2-({(1S)-1-[4-(2-fluoropyridin-4-yl)phenyl]ethyl}amino)-8-[(2S)-3-methylbutan-2-yl]pyrido[2,3-d]pyrimidin-7(8H)-one]
- pIC50 (IDH2^R172K): 5.12
- pIC50 [1]: 6.75
- pIC50 (IDH1^R132C): 7.03

Structure (SMILES): CC(C)[C@H](C)n1c(=O)ccc2cnc(N[C@@H](C)c3ccc(C4=CCN(C(=O)OC(C)(C)C)CC4)cc3)nc21 [cpd 167, tert-butyl 4-{4-[(1S)-1-({8-[(2S)-3-methylbutan-2-yl]-7-oxo-7,8-dihydropyrido[2,3-d]pyrimidin-2-yl}amino)ethyl]phenyl}-3,6-dihydropyridine-1(2H)-carboxylate]
- pIC50 (IDH2^R172K): 5.59
- pIC50 [1]: 7.52
- pIC50 (IDH1^R132C): 7.64

Structure (SMILES): CC(C)[C@H](C)n1c(=O)ccc2cnc(N[C@@H](C)c3cc4cc(Cl)ccc4[nH]c3=O)nc21 [cpd 172, 2-{[(1S)-1-(6-chloro-2-oxo-1,2-dihydroquinolin-3-yl)ethyl]amino}-8-[(2S)-3-methylbutan-2-yl]pyrido[2,3-d]pyrimidin-7(8H)-one]
- pIC50 (IDH2^R172K): 5.45
- pIC50 [1]: 6.75
- pIC50 (IDH1^R132C): 7.25

Structure (SMILES): CC(C)[C@H](C)n1c(=O)ccc2cnc(N[C@@H](C)c3ccc(N4CCN(C(=O)OCc5ccccc5)CC4)c(F)c3)nc21 [cpd 178, Benzyl 4-{2-fluoro-4-[(1S)-1-({8-[(2S)-3-methylbutan-2-yl]-7-oxo-7,8-dihydropyrido[2,3-d]pyrimidin-2-yl}amino)ethyl]phenyl}piperazine-1-carboxylate]
- pIC50 (IDH2^R172K): 5.30
- pIC50 [1]: 7.34
- pIC50 (IDH1^R132C): 7.52

Structure (SMILES): C=CC(=O)N1CCN(c2ccc([C@H](C)Nc3ncc4ccc(=O)n([C@@H](C)C(C)C)c4n3)cc2F)CC1 [cpd 179, 2-({(1S)-1-[4-(4-acryloylpiperazin-1-yl)-3-fluorophenyl]ethyl}amino)-8-[(2S)-3-methylbutan-2-yl]pyrido[2,3-d]pyrimidin-7(8H)-one]
- pIC50 (IDH2^R172K): 5.63
- pIC50 [1]: 6.91
- pIC50 (IDH1^R132C): 7.20

Structure (SMILES): C=CC(=O)N1CCN(C(=O)c2ccc([C@H](C)Nc3ncc4ccc(=O)n(CC)c4n3)cc2)CC1 [cpd 190, 2-{[(1S)-1-{4-[(4-acryloylpiperazin-1-yl)carbonyl]phenyl}ethyl]amino}-8-ethylpyrido[2,3-d]pyrimidin-7(8H)-one]
- pIC50 (IDH2^R172K): 6.17
- pIC50 [1]: 5.71
- pIC50 (IDH1^R132C): 5.44

Structure (SMILES): C=CC(=O)N1CCC(NC(=O)c2ccc([C@H](C)Nc3ncc4ccc(=O)n(C(C)C)c4n3)cc2F)CC1 [cpd 192, N-(1-acryloylpiperidin-4-yl)-2-fluoro-4-[(1S)-1-{[7-oxo-8-(propan-2-yl)-7,8-dihydropyrido[2,3-d]pyrimidin-2-yl]amino}ethyl]benzamide]
- pIC50 (IDH2^R172K): 6.19
- pIC50 [1]: 6.64
- pIC50 (IDH1^R132C): 6.60

Structure (SMILES): C=CC(=O)N1CC=C(c2ccc([C@H](C)Nc3ncc4ccc(=O)n([C@@H](C)C(C)C)c4n3)nc2)CC1 [cpd 194, 2-{[(1S)-1-(1′-acryloyl-1′,2′,3′,6′-tetrahydro-3,4′-bipyridin-6-yl)ethyl]amino}-8-[(2S)-3-methylbutan-2-yl]pyrido [2,3-d]pyrimidin-7(8H)-one]
- pIC50 (IDH2^R172K): 5.75
- pIC50 [1]: 6.47
- pIC50 (IDH1^R132C): 6.70

Structure (SMILES): C=CC(=O)N1CCN(Cc2ccc([C@H](C)Nc3ncc4ccc(=O)n([C@@H](C)CF)c4n3)cc2)CC1 [cpd 198, 2-{[(1S)-1-{4-[(4-acryloylpiperazin-1-yl)methyl]phenyl}ethyl]amino}-8-[(2S)-1-fluoropropan-2-yl]pyrido[2,3-d]pyrimidin-7(8H)-one]
- pIC50 (IDH2^R172K): 6.61
- pIC50 [1]: 6.88
- pIC50 (IDH1^R132C): 6.40

Structure (SMILES): C=CC(=O)N1CCN(Cc2ccc([C@H](C)Nc3ncc4ccc(=O)n([C@@H](C)CO)c4n3)cc2)CC1 [cpd 199, 2-{[(1S)-1-{4-[(4-acryloylpiperazin-1-yl)methyl]phenyl}ethyl]amino}-8-[(2S)-1-hydroxypropan-2-yl]pyrido[2,3-d]pyrimidin-7(8H)-one]
- pIC50 (IDH2^R172K): 6.14
- pIC50 [1]: 5.85
- pIC50 (IDH1^R132C): 5.82

Structure (SMILES): C=CC(=O)N1CCN(Cc2ccc([C@H](C)Nc3ncc4ccc(=O)n(CC)c4n3)cc2)[C@H](C(C)C)C1 [cpd 209, 2-{[(1S)-1-(4-{[(2R)-4-acryloyl-2-(propan-2-yl)piperazin-1-yl]methyl}phenyl)ethyl]amino}-8-ethylpyrido[2,3-d]pyrimidin-7(8H)-one]
- pIC50 (HT-1080 (IDH1^R132C); Homo sapiens, HT-1080, 72 h): 7.52
- pIC50 (IDH1^R132C): 7.34

Structure (SMILES): C[C@H](Nc1cc2c(ccc(=O)n2CC(C)(C)C)cn1)c1ccc(CN2CCCC(F)(F)C2)cc1 [cpd 235, 7-{(S)-1-[4-(3,3-Difluoro-piperidin-1-ylmethyl)-phenyl]-ethylamino}-1-(2,2-dimethyl-propyl)-1H-[1,6]naphthyridin-2-one]
- pIC50 (IDH2^R172K): 5.29
- pIC50 [1]: 6.89
- pIC50 (IDH1^R132C): 7.32
